According to patent US20110306573A1, “NUCLEOSIDE DERIVATIVES AS INHIBITORS OF VIRAL POLYMERASES” (priority 2008, published 2011):

Target: T1, HCV NS5B polymerase (Hepatitis C virus genotype 1b, UniProt P26663)
T1 construct: RNA-dependent RNA polymerase (NS5B) of the hepatitis C virus (HCV)
Experiment: Assay for inhibition of HCV NS5B polymerase (RdRp, 3H-UTP incorporation on heteromeric RNA template)
Type: biochemical
Conditions: heterogeneous template dCoh, 2 nM DC55-lb.BK or 10 nM DC55-2b.2, NTPs 1 uM, room temperature 2 hours
Experimental: The effectiveness of the compounds of the present invention as inhibitors of HCV NS5B RNA-dependent RNA polymerase (RdRp) was measured in the following assay.
This assay was used to measure the ability of the nucleoside derivatives of the present invention to inhibit the enzymatic activity of the RNA-dependent RNA polymerase (NS5B) of the hepatitis C virus (HCV) on a heteromeric RNA template.
Assay Buffer Conditions: (52.5 μL-total/reaction)
20 nM heterogeneous template dCoh
2.5 μl/reaction inhibitor compound in H2O
The compounds were tested at various concentrations up to 100 μM final concentration. Nucleoside derivatives were pipetted into wells of a 96-well plate. The enzyme diluted in the reaction buffer was pipetted into the wells and incubated at room temperature for 10 minutes; then the template dCoh was added and incubated for 10 minutes at room temperature. The reaction was initiated by addition of a mixture of nucleotide triphosphates (NTP's), including the radiolabeled UTP, and allowed to proceed at room temperature for 2 hours. Blank samples were done omitting the dCoh template. The reaction was quenched by addition of 50 ul TCA 20% (trichloroacetic acid)/NaPPi 20 mM and the plates were put in ice for 5 minutes. Then, the mixtures were filtered onto Unifilter GF/B 96-well plates (PerkinElmer), washed with TCA 2.5%. 50 ul/well of scintillator solution (Microscint 20, PerkinElmer) were added and the plates were counted in a scintillator counter.
The percentage of inhibition was calculated according to the following equation:
% Inhibition=[1−(cpm in test reaction−cpm in blank)/(cpm in control reaction−cpm in blank)]×100.

T1 sequence (P26663 2420-2955): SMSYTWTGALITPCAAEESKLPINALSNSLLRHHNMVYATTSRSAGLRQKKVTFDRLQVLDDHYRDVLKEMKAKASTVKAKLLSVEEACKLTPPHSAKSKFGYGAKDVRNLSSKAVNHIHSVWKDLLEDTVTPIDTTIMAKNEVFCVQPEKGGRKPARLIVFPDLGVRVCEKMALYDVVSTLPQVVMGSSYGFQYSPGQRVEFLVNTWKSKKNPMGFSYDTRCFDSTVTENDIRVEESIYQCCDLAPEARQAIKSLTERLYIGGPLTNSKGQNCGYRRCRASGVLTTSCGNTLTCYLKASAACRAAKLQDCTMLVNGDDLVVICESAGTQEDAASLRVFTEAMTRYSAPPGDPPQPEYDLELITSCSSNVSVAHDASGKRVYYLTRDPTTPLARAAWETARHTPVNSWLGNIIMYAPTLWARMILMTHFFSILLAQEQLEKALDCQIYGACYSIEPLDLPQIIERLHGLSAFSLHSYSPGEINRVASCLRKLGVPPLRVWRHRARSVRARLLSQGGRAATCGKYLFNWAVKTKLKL

| SMILES | IC50 [µM] |
| --- | --- |
| C[C@@]1(O)[C@H](O)[C@@H](COP(=O)(O)OP(=O)(O)OP(=O)(O)O)O[C@H]1n1cc(-c2nnco2)c2c(N)ncnc21 [Compound 28, 7-(2-C-methyl-5-triphospho-β-D-ribofuranosyl)-5-(1,3,4-oxadiazol-2-yl)-7H-pyrrolo[2,3-d]pyrimidin-4-amine] | < 50 |
| C[C@@]1(O)[C@H](O)[C@@H](COP(=O)(O)OP(=O)(O)OP(=O)(O)O)O[C@H]1n1cc(-c2cc[nH]n2)c2c(N)ncnc21 [Compound 14, 7-(2-C-methyl-5-triphospho-β-D-ribofuranosyl)-5-(1H-pyrazol-5-yl)-7H-pyrrolo[2,3-d]pyrimidin-4-amine] | < 1 |
| COc1nc(-c2cn([C@@H]3O[C@H](COP(=O)(O)OP(=O)(O)OP(=O)(O)O)[C@@H](O)[C@@]3(C)O)c3ncnc(N)c23)cs1 [Compound 13, 5-(2-methoxy-1,3-thiazol-4-yl)-7-(2-C-methyl-5-triphospho-β-D-ribofuranosyl)-7H-pyrrolo[2,3-d]pyrimidin-4-amine] | < 50 |
| C[C@@]1(F)[C@H](O)[C@@H](COP(=O)(O)OP(=O)(O)OP(=O)(O)O)O[C@H]1n1cc(-c2ccn[nH]2)c2c(N)ncnc21 [Compound 20, 7-(2-deoxy-2-fluoro-2-methyl-5-triphospho-β-D-ribofuranosyl)-5-(1H-pyrazol-5-yl)-7H-pyrrolo[2,3-d]pyrimidin-4-amine] | < 1 |
| C[C@@]1(O)[C@H](O)[C@@H](COP(=O)(O)OP(=O)(O)OP(=O)(O)O)O[C@H]1n1nc(-c2cc[nH]n2)c2c(N)ncnc21 [Compound 26, 1-[5-O-(hydroxy{[hydroxy(phosphonooxy)phosphoryl]oxy}phosphoryl)-2-C-methyl-b-D-ribofuranosyl]-3-(1H-pyrazol-3-yl)-1H-pyrazolo[3,4-d]pyrimidin-4-amine] | < 50 |

Continued, values first:

| IC50 [µM] | SMILES |
| --- | --- |
| < 50 | C[C@@]1(O)[C@H](O)[C@@H](COP(=O)(O)OP(=O)(O)OP(=O)(O)O)O[C@H]1n1cc(-c2ncccn2)c2c(N)ncnc21 [Compound 12, 7-(2-C-methyl-5-triphospho-β-D-ribofuranosyl)-5-pyrimidin-2-yl-7H-pyrrolo[2,3-d]pyrimidin-4-amine] |
| < 1 | C[C@@]1(O)[C@H](O)[C@@H](COP(=O)(O)OP(=O)(O)OP(=O)(O)O)O[C@H]1n1cc(-c2ncco2)c2c(N)ncnc21 [Compound 11, 7-(2-C-methyl-5-triphospho-β-D-ribofuranosyl)-5-(1,3-oxazol-2-yl)-7H-pyrrolo[2,3-d]pyrimidin-4-amine] |
| < 1 | C[C@@]1(F)[C@H](O)[C@@H](COP(=O)(O)OP(=O)(O)OP(=O)(O)O)O[C@H]1n1cc(-c2ncco2)c2c(N)ncnc21 [Compound 19, 7-(2-deoxy-2-fluoro-2-methyl-5-triphospho-β-D-ribofuranosyl)-5-(1,3-oxazol-2-yl)-7H-pyrrolo[2,3-d]pyrimidin-4-amine] |
